Each compound was assayed against Rho-associated protein kinase 2 (Homo sapiens, UniProt O75116) (assay: In Vitro Assay).
Procedure: The effectiveness of compounds of the present invention as ROCK inhibitors can be determined in a 30 μL assay containing 20 mM HEPES, pH 7.5, 20 mM MgCl2, 0.015% Brij-35, 4 mM DTT, 5 μM ATP and 1.5 μM peptide substrate (FITC-AHA-AKRRRLSSLRA-OH) (SEQ ID No. 1). Compounds were dissolved in DMSO so that the final concentration of DMSO was <2%, and the reaction was initiated with Rho kinase variants. After incubation, the reaction was terminated by the addition of EDTA and the phosphorylated and non-phosphorylated peptides separated using a LABCHIP 3000 Reader (Caliper Life Sciences). […] Compounds were tested in dose-response format, and the inhibition of kinase activity was calculated at each concentration of compound. The inhibition data were fit using a curve-fitting program to determine the IC50; i.e., the concentration of compound required to inhibit 50% of kinase activity.

Rho-associated protein kinase 2, sequence (O75116 whole entry): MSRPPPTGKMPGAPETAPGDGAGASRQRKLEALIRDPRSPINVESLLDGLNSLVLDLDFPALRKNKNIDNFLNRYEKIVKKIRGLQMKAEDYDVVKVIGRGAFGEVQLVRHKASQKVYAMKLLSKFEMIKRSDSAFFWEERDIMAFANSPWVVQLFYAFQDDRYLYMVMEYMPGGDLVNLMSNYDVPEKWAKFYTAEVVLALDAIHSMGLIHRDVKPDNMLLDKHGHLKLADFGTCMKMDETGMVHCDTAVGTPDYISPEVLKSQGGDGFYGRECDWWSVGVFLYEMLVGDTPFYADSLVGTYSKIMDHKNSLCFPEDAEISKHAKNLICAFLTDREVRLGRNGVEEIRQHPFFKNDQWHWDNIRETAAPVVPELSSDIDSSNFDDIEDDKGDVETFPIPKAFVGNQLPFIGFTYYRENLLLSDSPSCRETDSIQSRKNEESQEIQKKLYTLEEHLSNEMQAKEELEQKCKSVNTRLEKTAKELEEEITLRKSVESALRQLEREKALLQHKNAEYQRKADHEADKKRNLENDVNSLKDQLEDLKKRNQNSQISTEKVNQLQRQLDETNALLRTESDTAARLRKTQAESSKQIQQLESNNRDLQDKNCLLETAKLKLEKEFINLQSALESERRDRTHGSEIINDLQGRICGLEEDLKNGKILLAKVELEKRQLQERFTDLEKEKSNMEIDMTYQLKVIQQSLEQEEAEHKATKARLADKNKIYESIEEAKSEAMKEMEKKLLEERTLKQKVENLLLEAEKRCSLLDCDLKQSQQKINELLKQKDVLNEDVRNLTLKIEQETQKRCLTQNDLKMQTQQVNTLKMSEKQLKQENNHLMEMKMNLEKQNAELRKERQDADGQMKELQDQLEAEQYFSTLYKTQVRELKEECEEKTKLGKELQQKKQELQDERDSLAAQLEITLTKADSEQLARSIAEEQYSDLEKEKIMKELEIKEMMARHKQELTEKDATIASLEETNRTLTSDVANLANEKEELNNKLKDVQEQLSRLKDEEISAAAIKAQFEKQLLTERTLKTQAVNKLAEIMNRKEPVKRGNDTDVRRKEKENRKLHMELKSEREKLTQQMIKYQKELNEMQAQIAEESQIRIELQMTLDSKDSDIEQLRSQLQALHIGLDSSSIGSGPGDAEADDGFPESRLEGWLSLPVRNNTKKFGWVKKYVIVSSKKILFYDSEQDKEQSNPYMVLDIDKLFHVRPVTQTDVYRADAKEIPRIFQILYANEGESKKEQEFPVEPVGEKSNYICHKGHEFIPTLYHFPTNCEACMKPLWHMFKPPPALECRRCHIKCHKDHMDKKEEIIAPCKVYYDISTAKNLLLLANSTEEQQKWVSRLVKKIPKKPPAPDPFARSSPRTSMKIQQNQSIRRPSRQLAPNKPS

How did the IC50 turn out when `NC(=O)c1cccnc1O[C@H]1CC2(C[C@H](Nc3nc4c(Cl)cccc4s3)C2)C1` (some centres not stated) [US11299488, Example 4] was run?
Its IC50 is 76 nM.

Which IC50 does the source give for `NC(=O)c1cccnc1O[C@H]1CC2(C[C@H](Nc3nc4c(Cl)cc(Cl)cc4s3)C2)C1` (some centres not stated) [US11299488, Example 5] here?
The IC50 was 105 nM.

With `NC(=O)c1cccnc1O[C@H]1CC2(C[C@H](Nc3nc4c(F)cc(Cl)cc4s3)C2)C1` (some centres not stated) [US11299488, Example 7] as the compound, how does the IC50 read?
The IC50 was 396 nM.

Which IC50 does the source give for `NC(=O)c1cccnc1O[C@H]1CC2(C[C@H](Nc3nc(-c4ccc(Cl)cc4)cs3)C2)C1` (some centres not stated) [US11299488, Example 9] here?
Its IC50 is 3300 nM.

For `NC(=O)c1cccnc1O[C@H]1CC2(C[C@H](Nc3nc(-c4ccccc4Cl)cs3)C2)C1` (some centres not stated) [US11299488, Example 10], which IC50 is on record?
The IC50 was 1700 nM.

Which IC50 does the source give for `COc1cnc(N[C@H]2CC3(C2)C[C@H](Oc2ncccc2C(N)=O)C3)c2cc(Cl)ccc12` (some centres not stated) [US11299488, Example 27] here?
Its IC50 is 15 nM.

For `NC(=O)c1cccnc1O[C@H]1CC2(C[C@H](Nc3nccc(N4CCCC(F)(F)C4)n3)C2)C1` (some centres not stated) [US11299488, Example 36], which IC50 is on record?
Its IC50 is 175 nM.
